Data from ChEMBL document CHEMBL4007479, “Immunoregulatory effect assessment of a novel melanin and its carboxymethyl derivative” (2017).

Key:
Format in all cases: functional
Mus musculus [1] = test: (§1) Immuno-regulatory activity in cyclophosphamide-induced immunocompromised Kunming mouse model assessed as SOD activity in kidney at 50 mg/kg administered once daily via gavage for 30 consecutive days measured after 12 hrs of fasting following last dose on day 30 (reference value: 198.82 +/- 9.98)
Mus musculus [2] = test: as §1, with “recovery from spleen damage by measuring spleen weight index” for “SOD activity in kidney”, “dose” for “dose on day 30”, “4.59” for “198.82”, “0.28)” for “9.98)”
Mus musculus [3] = test: (§2) Immuno-regulatory activity in cyclophosphamide-induced immunocompromised Kunming mouse model assessed as recovery from spleen damage by measuring spleen weight index at 200 mg/kg administered once daily via gavage for 30 consecutive days measured after 12 hrs of fasting following last dose (reference value: 4.59 +/- 0.28)
Mus musculus [4] = test: as §2, with “thymus” for “spleen”, “50” for “200”, “0.98” for “4.59”, “0.14)” for “0.28)”
Mus musculus [5] = test: as §2, with “thymus” for “spleen”, “0.98” for “4.59”, “0.14)” for “0.28)”
Mus musculus [6] = test: (§3) Immuno-regulatory activity in cyclophosphamide-induced immunocompromised Kunming mouse model assessed as body weight at 50 mg/kg administered once daily via gavage for 30 consecutive days measured after 12 hrs of fasting following last dose (reference value: 30.3 +/- 2.47 mg)
Mus musculus [7] = test: (§4) Immuno-regulatory activity in cyclophosphamide-induced immunocompromised Kunming mouse model assessed as body weight at 200 mg/kg administered once daily via gavage for 30 consecutive days measured after 12 hrs of fasting following last dose (reference value: 30.3 +/- 2.47 mg)
Mus musculus [8] = test: as §2, with “macrophage elimination ability against foreign substances” for “recovery from spleen damage”, “carbon clearance” for “spleen weight”, “50” for “200”, “2.68” for “4.59”, “0.3)” for “0.28)”
Mus musculus [9] = test: as §2, with “macrophage elimination ability against foreign substances” for “recovery from spleen damage”, “carbon clearance” for “spleen weight”, “2.68” for “4.59”, “0.3)” for “0.28)”
Mus musculus [10] = test: as §3, with “peritoneal macrophage phagocytosis rate” for “body weight”, “dose by Giemsa staining based assay” for “dose”, “21.33” for “30.3”, “0.98%)” for “2.47 mg)”
Mus musculus [11] = test: as §4, with “peritoneal macrophage phagocytosis rate” for “body weight”, “dose by Giemsa staining based assay” for “dose”, “21.33” for “30.3”, “0.98%)” for “2.47 mg)”
Mus musculus [12] = test: as §3, with “peritoneal macrophage phagocytosis index” for “body weight”, “dose by Giemsa staining based assay” for “dose”, “0.5” for “30.3”, “0.03)” for “2.47 mg)”
Mus musculus [13] = test: as §4, with “peritoneal macrophage phagocytosis index” for “body weight”, “dose by Giemsa staining based assay” for “dose”, “0.5” for “30.3”, “0.03)” for “2.47 mg)”
Mus musculus [14] = test: as §1, with “enhancement of B cell-mediated humoral immunity by measuring SRBC half hemolysis value” for “SOD activity in kidney”, “days and SRBC immunization on day 26” for “days”, “173.42” for “198.82”, “7.75)” for “9.98)”
Mus musculus [15] = test: Immuno-regulatory activity in cyclophosphamide-induced immunocompromised Kunming mouse model assessed as enhancement of B cell-mediated humoral immunity by measuring SRBC half hemolysis value at 200 mg/kg administered once daily via gavage for 30 consecutive days and SRBC immunization on day 26 measured after 12 hrs of fasting following last dose on day 30 (reference value: 173.42 +/- 7.75)
Mus musculus [16] = test: (§5) Immuno-regulatory activity in cyclophosphamide-induced immunocompromised Kunming mouse model assessed as enhancement of B cell-mediated humoral immunity by measuring antibody producing cells in spleen against SRBC at 50 mg/kg administered once daily via gavage for 30 consecutive days measured after 12 hrs of fasting following last dose on day 30 (reference value: 0.48 +/- 0.05)
Mus musculus [17] = test: as §5, with “200” for “50”
Mus musculus [18] = test: (§6) Immuno-regulatory activity in cyclophosphamide-induced immunocompromised Kunming mouse model assessed as concanavalin A-induced lymphocyte proliferation stimulate index in spleen at 50 mg/kg administered once daily via gavage for 30 consecutive days measured after 12 hrs of fasting following last dose on day 30 by MTT assay (reference value: 0.054 +/- 0.001)
Mus musculus [19] = test: as §6, with “200” for “50”
Mus musculus [20] = test: (§7) Immuno-regulatory activity in cyclophosphamide-induced immunocompromised Kunming mouse model assessed as enhancement of T cell-mediated delayed-type hypersensitivity by measuring increase in paw weight at 50 mg/kg administered once daily via gavage for 30 consecutive days and SRBC immunization on day 26 measured after 12 hrs of fasting following last dose on day 30 relative to control
Mus musculus [21] = test: as §7, with “200” for “50”
Mus musculus [22] = test: Immuno-regulatory activity in cyclophosphamide-induced immunocompromised Kunming mouse model assessed as SOD activity in serum at 50 mg/kg administered once daily via gavage for 30 consecutive days measured after 12 hrs of fasting following last dose on day 30 (reference value: 91.98 +/- 3.32)
Mus musculus [23] = test: Immuno-regulatory activity in cyclophosphamide-induced immunocompromised Kunming mouse model assessed as SOD activity in serum at 200 mg/kg administered once daily via gavage for 30 consecutive days measured after 12 hrs of fasting following last dose on day 30 (reference value: 91.98 +/- 3.32)
Mus musculus [24] = test: Immuno-regulatory activity in cyclophosphamide-induced immunocompromised Kunming mouse model assessed as GSH-PX activity in serum at 50 mg/kg administered once daily via gavage for 30 consecutive days measured after 12 hrs of fasting following last dose on day 30 (reference value: 5.66 +/- 0.17)
Mus musculus [25] = test: Immuno-regulatory activity in cyclophosphamide-induced immunocompromised Kunming mouse model assessed as GSH-PX activity in serum at 200 mg/kg administered once daily via gavage for 30 consecutive days measured after 12 hrs of fasting following last dose on day 30 (reference value: 5.66 +/- 0.17)
Mus musculus [26] = test: Immuno-regulatory activity in cyclophosphamide-induced immunocompromised Kunming mouse model assessed as MDA content in serum at 50 mg/kg administered once daily via gavage for 30 consecutive days measured after 12 hrs of fasting following last dose on day 30 (reference value: 2.77 +/- 0.05)
Mus musculus [27] = test: Immuno-regulatory activity in cyclophosphamide-induced immunocompromised Kunming mouse model assessed as MDA content in serum at 200 mg/kg administered once daily via gavage for 30 consecutive days measured after 12 hrs of fasting following last dose on day 30 (reference value: 2.77 +/- 0.05)
Mus musculus [28] = test: Immuno-regulatory activity in cyclophosphamide-induced immunocompromised Kunming mouse model assessed as SOD activity in kidney at 200 mg/kg administered once daily via gavage for 30 consecutive days measured after 12 hrs of fasting following last dose on day 30 (reference value: 198.82 +/- 9.98)
Mus musculus [29] = test: Immuno-regulatory activity in cyclophosphamide-induced immunocompromised Kunming mouse model assessed as GSH-PX activity in kidney at 50 mg/kg administered once daily via gavage for 30 consecutive days measured after 12 hrs of fasting following last dose on day 30 (reference value: 10.12 +/- 0.25)
Mus musculus [30] = test: Immuno-regulatory activity in cyclophosphamide-induced immunocompromised Kunming mouse model assessed as GSH-PX activity in kidney at 200 mg/kg administered once daily via gavage for 30 consecutive days measured after 12 hrs of fasting following last dose on day 30 (reference value: 10.12 +/- 0.25)
Mus musculus [31] = test: Immuno-regulatory activity in cyclophosphamide-induced immunocompromised Kunming mouse model assessed as MDA content in kidney at 50 mg/kg administered once daily via gavage for 30 consecutive days measured after 12 hrs of fasting following last dose on day 30 (reference value: 2.35 +/- 0.06)
Mus musculus [32] = test: Immuno-regulatory activity in cyclophosphamide-induced immunocompromised Kunming mouse model assessed as MDA content in kidney at 200 mg/kg administered once daily via gavage for 30 consecutive days measured after 12 hrs of fasting following last dose on day 30 (reference value: 2.35 +/- 0.06)
Mus musculus [33] = test: Immuno-regulatory activity in cyclophosphamide-induced immunocompromised Kunming mouse model assessed as SOD activity in liver at 50 mg/kg administered once daily via gavage for 30 consecutive days measured after 12 hrs of fasting following last dose on day 30 (reference value: 160.65 +/- 3.12)
Mus musculus [34] = test: Immuno-regulatory activity in cyclophosphamide-induced immunocompromised Kunming mouse model assessed as SOD activity in liver at 200 mg/kg administered once daily via gavage for 30 consecutive days measured after 12 hrs of fasting following last dose on day 30 (reference value: 160.65 +/- 3.12)
Mus musculus [35] = test: Immuno-regulatory activity in cyclophosphamide-induced immunocompromised Kunming mouse model assessed as GSH-PX activity in liver at 50 mg/kg administered once daily via gavage for 30 consecutive days measured after 12 hrs of fasting following last dose on day 30 (reference value: 9.52 +/- 0.26)
Mus musculus [36] = test: Immuno-regulatory activity in cyclophosphamide-induced immunocompromised Kunming mouse model assessed as GSH-PX activity in liver at 200 mg/kg administered once daily via gavage for 30 consecutive days measured after 12 hrs of fasting following last dose on day 30 (reference value: 9.52 +/- 0.26)
Mus musculus [37] = test: Immuno-regulatory activity in cyclophosphamide-induced immunocompromised Kunming mouse model assessed as MDA content in liver at 50 mg/kg administered once daily via gavage for 30 consecutive days measured after 12 hrs of fasting following last dose on day 30 (reference value: 3.34 +/- 0.18)
Mus musculus [38] = test: Immuno-regulatory activity in cyclophosphamide-induced immunocompromised Kunming mouse model assessed as MDA content in liver at 200 mg/kg administered once daily via gavage for 30 consecutive days measured after 12 hrs of fasting following last dose on day 30 (reference value: 3.34 +/- 0.18)
Mus musculus [39] = test: Immuno-regulatory activity in cyclophosphamide-induced immunocompromised Kunming mouse model assessed as SOD activity in spleen at 50 mg/kg administered once daily via gavage for 30 consecutive days measured after 12 hrs of fasting following last dose on day 30 (reference value: 94.84 +/- 3.28)
Mus musculus [40] = test: Immuno-regulatory activity in cyclophosphamide-induced immunocompromised Kunming mouse model assessed as SOD activity in spleen at 200 mg/kg administered once daily via gavage for 30 consecutive days measured after 12 hrs of fasting following last dose on day 30 (reference value: 94.84 +/- 3.28)
Mus musculus [41] = test: Immuno-regulatory activity in cyclophosphamide-induced immunocompromised Kunming mouse model assessed as GSH-PX activity in spleen at 50 mg/kg administered once daily via gavage for 30 consecutive days measured after 12 hrs of fasting following last dose on day 30 (reference value: 7.97 +/- 1.21)
Mus musculus [42] = test: Immuno-regulatory activity in cyclophosphamide-induced immunocompromised Kunming mouse model assessed as GSH-PX activity in spleen at 200 mg/kg administered once daily via gavage for 30 consecutive days measured after 12 hrs of fasting following last dose on day 30 (reference value: 7.97 +/- 1.21)
Mus musculus [43] = test: Immuno-regulatory activity in cyclophosphamide-induced immunocompromised Kunming mouse model assessed as MDA content in spleen at 50 mg/kg administered once daily via gavage for 30 consecutive days measured after 12 hrs of fasting following last dose on day 30 (reference value: 4.9 +/- 0.11)
Mus musculus [44] = test: Immuno-regulatory activity in cyclophosphamide-induced immunocompromised Kunming mouse model assessed as MDA content in spleen at 200 mg/kg administered once daily via gavage for 30 consecutive days measured after 12 hrs of fasting following last dose on day 30 (reference value: 4.9 +/- 0.11)

O=C(O)C1c2cc(O)c(O)c3sc4c5c(O)[nH]c6cc(O)c(O)c(c65)c5c6ccc7ccc1c(c76)n(c23)c45 (centres undefined)
Activity (Mus musculus [1]): 218.42
Activity_index (Mus musculus [2]): 4.61 mg/g
Activity_index (Mus musculus [3]): 5.13 mg/g
Activity_index (Mus musculus [4]): 1.01 mg/g
Activity_index (Mus musculus [5]): 1.37 mg/g
Activity (Mus musculus [6]): 32.9 g
Activity (Mus musculus [7]): 35.7 g
Activity_index (Mus musculus [8]): 2.95
Activity_index (Mus musculus [9]): 3.54
Activity (Mus musculus [10]): 22.14%
Activity (Mus musculus [11]): 26.31%
Activity_index (Mus musculus [12]): 0.53
Activity_index (Mus musculus [13]): 0.79
Activity (Mus musculus [14]): 175.62
Activity (Mus musculus [15]): 182.25
Activity (Mus musculus [16]): 0.52
Activity (Mus musculus [17]): 0.62
Activity_index (Mus musculus [18]): 0.061
Activity_index (Mus musculus [19]): 0.072
Activity (Mus musculus [20]): 42.87%
Activity (Mus musculus [21]): 79.3%
Activity (Mus musculus [22]): 94.15
Activity (Mus musculus [23]): 104.09
Activity (Mus musculus [24]): 5.76
Activity (Mus musculus [25]): 7.27
Activity (Mus musculus [26]): 2.66
Activity (Mus musculus [27]): 2
Activity (Mus musculus [28]): 233.49
Activity (Mus musculus [29]): 11.57
Activity (Mus musculus [30]): 16.79
Activity (Mus musculus [31]): 2.07
Activity (Mus musculus [32]): 1.83
Activity (Mus musculus [33]): 174.51
Activity (Mus musculus [34]): 202.26
Activity (Mus musculus [35]): 9.76
Activity (Mus musculus [36]): 16.1
Activity (Mus musculus [37]): 2.99
Activity (Mus musculus [38]): 2.25
Activity (Mus musculus [39]): 106.25
Activity (Mus musculus [40]): 110.54
Activity (Mus musculus [41]): 8.76
Activity (Mus musculus [42]): 11.99
Activity (Mus musculus [43]): 4.54
Activity (Mus musculus [44]): 3.13
